Legend:
[1] = Stimulation of IL-2-treated human Vgamma9Vdelta2 T cell proliferation incubated for 72 hrs followed by compound washout measured after 11 days by flow cytometry; format: functional, cell-based
[2] = Stimulation of IL-2-treated human Vgamma9Vdelta2 T cell proliferation assessed as IFN-gamma release pretreated human […] cells with compound for 1 hr followed by compound washout and addition of washed K562 cells to medium containing Vgamma9Vdelta2 T cells measured after 20 hrs by ELISA; format: functional, cell-based
[3] = Stability in human plasma assessed as compound remaining at 100 uM measured after 2 hrs by MS analysis; format: ADME, cell-free; conditions: for Stability: 2 h, 100 µM
[4] = Stability in human plasma assessed as half life at 100 uM by LCMS analysis; format: ADME, cell-free
[5] = Prodrug conversion in human plasma assessed as formation of Ac-monoanion metabolite by measuring metabolite peak intensity at 100 uM incubated for 1 hr by LCMS analysis; format: ADME, cell-free
[6] = Prodrug conversion in human plasma assessed as formation of mono-anion metabolite by measuring metabolite peak intensity at 100 uM incubated for 1 hr by LCMS analysis; format: ADME, cell-free
[7] = Prodrug conversion in human plasma assessed as formation of di-anion metabolite by measuring metabolite peak intensity at 100 uM incubated for 1 hr by LCMS analysis; format: ADME, cell-free; design: unit not given here
[8] = Prodrug conversion in human K562 cells assessed as formation of Ac-monoanion metabolite by measuring metabolite peak intensity at 100 uM incubated for 1 hr by LCMS analysis; format: functional
[9] = Prodrug conversion in human K562 cells assessed as formation of mono-anion metabolite by measuring metabolite peak intensity at 100 uM incubated for 1 hr by LCMS analysis; format: functional
[10] = Prodrug conversion in human K562 cells assessed as formation of di-anion metabolite by measuring metabolite peak intensity at 100 uM incubated for 1 hr by LCMS analysis; format: functional
[11] = Stability in mouse plasma assessed as compound remaining measured after 2 hrs by MS analysis; format: ADME, cell-free
[12] = Stability in rat plasma assessed as compound remaining measured after 2 hrs by MS analysis; format: ADME, cell-free
[13] = Stability in mouse plasma assessed as half life measured after 2 hrs by MS analysis; format: ADME, cell-free

In the case of `CC(=O)OC/C(C)=C/CCP(=O)(OCOC(=O)c1ccccc1)Oc1ccc(C(C)C)cc1` (stereo unspecified), the EC50 [1] is reported as 0.27 nM, the EC50 [2] is reported as 2.6 nM and the Stability [3] is reported as 34%. The t1/2 [4] was 66 min, the Activity [5] was 12000 and the Activity [6] was 300. It also gave an Activity [7] of 0, an Activity [8] of 180 and an Activity [9] of 8800. The Activity [10] was 870 and the Stability [11] was “Stable”.

For `COc1ccc(C(=O)OCOP(=O)(CC/C=C(\C)COC(C)=O)Oc2ccc(C(C)C)cc2)cc1` (stereo unspecified), the EC50 [1] was 0.84 nM, the EC50 [2] was 4.1 nM and the Stability [3] was 62%. The t1/2 [4] was 180 min, the Activity [5] was 3500 and the Activity [6] was 830. For the same compound, the Activity [7] was 0, the Activity [8] was 18 and the Activity [9] was 3900. The Activity [10] was 360 and the Stability [11] was “Stable”.

Work on `CC(=O)OC/C(C)=C/CCP(=O)(OCOC(=O)CC1CCOCC1)Oc1ccc(C(C)C)cc1` (stereo unspecified) yielded an EC50 [1] of 0.44 nM, an EC50 [2] of 3.5 nM and a Stability [3] of 28%. The t1/2 [4] was 42 min, the Activity [5] was 6100 and the Activity [6] was 3000. The Activity [7] was 0, the Activity [8] was 49 and the Activity [9] was 6300. The Activity [10] was 1000 and the Stability [11] was “Stable”.

For `CC(=O)OC/C(C)=C/CCP(=O)(OCOC(=O)CC1CCOCC1)Oc1cccc2ccccc12` (stereo unspecified), the EC50 [1] was 0.66 nM, the EC50 [2] was 5.4 nM and the Stability [3] was 7%. It also gave a t1/2 [4] of 15 min, an Activity [5] of 2900 and an Activity [6] of 2800. For the same compound, the Activity [7] was 0, the Activity [8] was 4 and the Activity [9] was 3000. The Activity [10] was 880 and the Stability [11] was “Stable”.

Work on `C/C(=C\CCP(=O)(OCOC(=O)CC1CCOCC1)Oc1ccc(C(C)C)cc1)CO` (stereo unspecified) yielded an EC50 [1] of 0.53 nM, an EC50 [2] of 2.2 nM and a Stability [3] of 0%. It also gave an Activity [6] of 16000, an Activity [7] of 0 and an Activity [9] of 6600. For the same compound, the Activity [10] was 640 and the Stability [11] was “Stable”.

Work on `C/C(=C\CCP(=O)(OCOC(=O)CC1CCCCC1)Oc1ccc(C(C)C)cc1)CO` (stereo unspecified) yielded an EC50 [1] of 1.1 nM, an EC50 [2] of 2.8 nM and a Stability [3] of 80%. It also gave a t1/2 [4] of 94 min, an Activity [6] of 4500 and an Activity [7] of 0. For the same compound, the Activity [9] was 4800, the Activity [10] was 500 and the Stability [11] was “Stable”.

With `C/C(=C\CCP(=O)(OCOC(=O)CC1CCOCC1)Oc1cccc2ccccc12)CO` (stereo unspecified) the EC50 [1] was 0.37 nM, the EC50 [2] was 4.8 nM and the Stability [3] was 0%. It also gave a t1/2 [4] of 5.9 min, an Activity [6] of 11000 and an Activity [7] of 0. It also gave an Activity [9] of 3200, an Activity [10] of 690 and a Stability [12] of 65%. For the same compound, the Stability [11] was “Stable” and the t1/2 [13] was 5.6 min.

`C/C(=C\CCP(=O)(OCOC(=O)C1CCCCC1)Oc1ccccc1)CO` (stereo unspecified) showed a remaining at 2 h, 100 µM ([3]; read-out: Stability) of 0%.

`COc1ccc(C(=O)OCOP(=O)(CC/C=C(\C)CO)Oc2ccc(C(C)C)cc2)cc1` (stereo unspecified) showed an EC50 [1] of 1.5 nM, an EC50 [2] of 6.4 nM and a Stability [3] of 71%. It also gave a t1/2 [4] of 500 min, an Activity [6] of 5900 and an Activity [7] of 0. The Activity [9] was 6000, the Activity [10] was 590 and the Stability [11] was “Stable”.

Work on `CC(=O)OC/C(C)=C/CCP(=O)(OCOC(=O)CC1CCCCC1)Oc1ccc(C(C)C)cc1` (stereo unspecified) yielded an EC50 [1] of 0.54 nM, an EC50 [2] of 3 nM and a Stability [3] of 90%. It also gave a t1/2 [4] of 750 min, an Activity [5] of 2400 and an Activity [6] of 330. The Activity [7] was 0, the Activity [8] was 54 and the Activity [9] was 3900. The Activity [10] was 410 and the Stability [11] was “Stable”.

Work on `C/C(=C\CCP(=O)(OCOC(=O)c1ccccc1)Oc1ccc(C(C)C)cc1)CO` (stereo unspecified) yielded an EC50 [1] of 0.43 nM, an EC50 [2] of 7 nM and a Stability [3] of 13%. For the same compound, the Activity [6] was 7900, the Activity [7] was 0 and the Activity [9] was 10000. For the same compound, the Activity [10] was 830 and the Stability [11] was “Stable”.

`CC(=O)OC/C(C)=C/CCP(=O)(OCOC(=O)C1CCOCC1)Oc1ccc(C(C)C)cc1` (stereo unspecified) gave an EC50 [1] of 1.2 nM, an EC50 [2] of 2.2 nM and a Stability [3] of 0%. The t1/2 [4] was 16 min, the Activity [5] was 9900 and the Activity [6] was 3200. It also gave an Activity [7] of 0, an Activity [8] of 67 and an Activity [9] of 8200. The Activity [10] was 1700 and the Stability [11] was “Stable”.

Compound `C/C(=C\CCP(=O)(OCOC(=O)C1CCOCC1)Oc1ccc(C(C)C)cc1)CO` (stereo unspecified) has an EC50 [1] of 0.97 nM, an EC50 [2] of 0.89 nM and a Stability [3] of 0%. It also gave a t1/2 [4] of 11 min, an Activity [6] of 13000 and an Activity [7] of 0. The Activity [9] was 18000, the Activity [10] was 1500 and the Stability [11] was “Stable”.

— ChEMBL document CHEMBL6092182, “Enhanced Plasma Stability and Potency of Aryl/Acyloxy Prodrugs of a BTN3A1 Ligand” (ACS Med Chem Lett, 2024)
